Assay results published in patent publication US7582656B2, “Guanidine derivatives and therapeutic uses thereof” (Merck Patent Gesellschaft, priority 2004, dated 2009).

Key:
human CETP promoter = experiment: luciferase reporter under the control of the human CETP promoter, inhibition of CETP expression; assay type: cell-based; conditions: final concentration of 15 μM, incubated overnight, Steady Glo luciferase read by luminometer
Method: The stably transfected cell line (luciferase under the control of the human CETP promoter) is maintained in the growth medium (DMEM/Hepes, F12, Glutamax, FBS and geneticin) incubated at 37° C., 95% humidity and 5% CO2 to the point of confluence. The cells are then rinsed with PBS and detached with a trypsin/EDTA mixture. The medium is changed every 2 to 3 days.
The resuspended cells are diluted and counted, and then distributed in microplate (96) wells.
About 20 000 cells per well are distributed and incubated overnight at 37° C. with 5% CO2.
The compounds of the present invention are diluted to a final concentration of 15 μM and distributed in the plates containing the cells.
The plates are incubated overnight at 37° C. with 5% CO2.
The medium covering the cells is drawn off and 100 μl of Steady Glo luciferase (DMEM without phenol red/Steady Glo, V/V) are added to the cells.
The plates are sealed with a film and left in the dark for about 20 minutes at room temperature.
The plates are then read using a luminometer (1 sec/well).
The inhibition of CETP expression by the products is expressed as a percentage of the control: […]

[1] = test system: stably transfected cell line; experiment: neutral red cellular toxicity check of the cultures; assay type: cell-based; conditions: neutral red 3 hours at 37° C., read at 540 nm
Method: On another batch of plates not treated with Steady Glo, the state of the cultures is checked by microscope. The culture medium is removed and 100 μl of medium comprising neutral red are added for 3 hours at 37° C.
The medium is then removed and replaced for one minute with 100 μl of formaldehyde-calcium (10 ml of 37% formaldehyde+calcium chloride dihydrate 10 g qs 1 L).
The plate is emptied and 100 μl of acetic acid-ethanol mixture (10 ml of glacial acetic acid+500 ml of absolute ethanol qs 1 L) are added to each well for 15 minutes with stirring.
The plates are then read at 540 nm. The stronger the coloration, […].

In the case of NCCCNC(=Nc1ccc(OCCCC(F)(F)F)cc1)N1CCC(Cc2ccccc2)CC1 [Example 95, N-(3-Aminopropyl)-4-benzyl-N′-[4-(4,4,4-trifluorobutoxy)phenyl]piperidine-1-carboxamidine], the “activity expressed as a percentage of the control” value (shortened to “activity expressed as a percentage”) (human CETP promoter) is reported as 16% and the cellular toxicity [1] is reported as “No cellular toxicity is detected”.

For COCCOc1ccc(N=C(NCCCN)N2CCC(C)CC2)cc1 [Example 31, N-(3-Aminopropyl)-N′-[4-(2-methoxyethoxy)phenyl]-4-methylpiperidine-1-carboxamidine], the “activity expressed as a percentage” value (human CETP promoter) was 30% and the cellular toxicity [1] was “No cellular toxicity is detected”.

With CC(C)CCN=C(NCC(C)(C)CN)Nc1ccc(OCc2ccccc2)cc1 [Example 5, N-(3-Amino-2,2-dimethylpropyl)-N′-(4-benzyloxyphenyl)-N″-(3-methylbutyl)-guanidine] the “activity expressed as a percentage” value (human CETP promoter) was 46% and the cellular toxicity [1] was “No cellular toxicity is detected”.

For CCC1CCCCN1C(=Nc1ccc(OCc2ccc(C(C)(C)C)cc2)cc1)NCCCN (centres unmarked) [Example 61, N-(3-Aminopropyl)-N′-[4-(4-tert-butylbenzyloxy)phenyl]-2-ethylpiperidine-1-carboxamidine], the “activity expressed as a percentage” value (human CETP promoter) was 33% and the cellular toxicity [1] was “No cellular toxicity is detected”.
